The record followed here is US10463660B2, “Benzoic acid, benzoic acid derivatives and heteroaryl carboxylic acid conjugates of oxymorphone, prodrugs, methods of making and use thereof” (KemPharm, Inc., priority 2014, dated 2019).

The nature of data set [1]: Oral PK profiles of conjugated oxymorphone in rats (released oxymorphone in plasma by LC-MS/MS). The note with it: for %-AUC / %-Cmax / %-Tmax: 2 mg/kg oxymorphone equivalent, relative to the OM control; for AUC / Cmax / Tmax: conjugate equivalent to 2 mg/kg freebase oxymorphone, released oxymorphone in plasma. It counts as in vivo, Sprague-Dawley rats. As to the method: Oral PK curves were determined for a number of prodrug conjugates of the present technology. Rats were orally administered at an amount of the conjugate equivalent to 2 mg/kg of freebase oxymorphone and the plasma concentrations of released oxymorphone were measured over time by LC-MS/MS.
All PK parameters from the above experiments were calculated and expressed as % change from the control (OM). These PK parameters included maximal plasma concentration (Cmax), area under curve (AUC), and time at which Cmax occurred (Tmax).

The nature of data set [2]: Intranasal PK profiles of conjugated oxymorphone in rats (released oxymorphone in plasma by LC-MS/MS). It counts as in vivo. The settings on record: for %-AUC / %-Cmax / %-Tmax: 0.2 mg/kg oxymorphone equivalent, relative to the OM control; for AUC / Cmax / Tmax: conjugate equivalent to 0.2 mg/kg freebase oxymorphone, released oxymorphone in plasma. As to the method:
Intranasal PK curves were determined for a number of prodrug conjugates of the present technology. Rats were intranasally administered at an amount of the conjugate equivalent to 0.2 mg/kg of freebase oxymorphone and the plasma concentrations of released oxymorphone were measured over time by LC-MS/MS.
All PK parameters from the above experiments were calculated and expressed as % change from the control (OM). These PK parameters included maximal plasma concentration (Cmax), area under curve (AUC), and time at which Cmax occurred (Tmax). These parameters are shown in Table 2 relative to the OM controls.

Broadly, the AUC is the area under the concentration-time curve, a measure of exposure. The Cmax is the peak of the concentration-time curve. As a reminder, the Tmax is the time from dosing to the highest level. Turning to `COc1cc(C(=O)Oc2ccc3c4c2O[C@H]2C(=O)CC[C@@]5(O)[C@@H](C3)N(C)CC[C@]425)ccc1O` [3-Vanillate-OM], in data set [1], the “%-AUC” value was 92%, the “%-Cmax” value came to 97%, the “%-Tmax” value is 46% and the AUC stood at 14.7 ng·h/mL. Besides, in data set [1], the Cmax is 7.5 ng/mL and the Tmax turned out to be 48 min.

Turning to `CN1CC[C@]23c4c5ccc(OC(=O)/C=C/c6ccccc6)c4O[C@H]2C(OC(=O)/C=C/c2ccccc2)=CC[C@@]3(O)[C@H]1C5` [3,6-(Cinnamate)2-OM], in data set [1], the “%-AUC” value turned out to be 38%, the “%-Cmax” value is given as 43%, the “%-Tmax” value stood at 50% and the AUC came to 14.5 ng·h/mL. Besides, in data set [1], the Cmax stood at 8.7 ng/mL and the Tmax turned out to be 45 min.

For `CN1CC[C@]23c4c5ccc(O)c4O[C@H]2C(OC(=O)c2cccc(N)c2)=CC[C@@]3(O)[C@H]1C5` [6-(3-ABz)-OM], in data set [1], the “%-AUC” value was determined as 46%, the “%-Cmax” value is 32%, the “%-Tmax” value was 276% and the AUC worked out at 16.7 ng·h/mL. In data set [1], the Cmax is 6.2 ng/mL and the Tmax was found to be 114 min.

Regarding `CN1CC[C@]23c4c5ccc(OC(=O)c6ccccc6O)c4O[C@H]2C(=O)CC[C@@]3(O)[C@H]1C5` [3-(2-OH-Bz)-OM], in data set [2], the “%-AUC” value came out at 66%, the “%-Cmax” value is listed as 55%, the “%-Tmax” value turned out to be 100% and the AUC came out at 65.9 ng·h/mL. In addition, in data set [2], the Cmax is 276.1 ng/mL and the Tmax came out at 4.8 min. For the same compound, in data set [1], the “%-AUC” value is given as 72%, the “%-Cmax” value was found to be 74%, the “%-Tmax” value is reported as 62% and the AUC amounted to 31.3 ng·h/mL. In data set [1], the Cmax is 17.5 ng/mL and the Tmax worked out at 39 min.

On to `COc1cc(C(=O)OC2=CC[C@@]3(O)[C@H]4Cc5ccc(O)c6c5[C@@]3(CCN4C)[C@H]2O6)ccc1O` [6-Vanillate-OM], for which, in data set [1], the “%-AUC” value is 56%, the “%-Cmax” value amounted to 65%, the “%-Tmax” value is reported as 97% and the AUC worked out at 8.9 ng·h/mL. In data set [1], the Cmax came out at 5.0 ng/mL and the Tmax turned out to be 102 min.

Turning to `CC(C(=O)OC1=CCC2(O)C3Cc4ccc(O)c5c4C2(CCN3C)C1O5)c1cccc(C(=O)c2ccccc2)c1` (stereo not drawn) [6-Ketoprofen-OM], in data set [1], the “%-AUC” value is recorded as 99%, the “%-Cmax” value came to 47%, the “%-Tmax” value came to 260% and the AUC was found to be 20.6 ng·h/mL. In data set [1], the Cmax is given as 11.8 ng/mL and the Tmax was determined as 39 min.

In the case of `COc1ccc(C(=O)OC2=CC[C@@]3(O)[C@H]4Cc5ccc(O)c6c5[C@@]3(CCN4C)[C@H]2O6)cc1` [6-(4-MeO-Bz)-OM], in data set [1], the “%-AUC” value amounted to 69%, the “%-Cmax” value is recorded as 90%, the “%-Tmax” value came to 22% and the AUC was 12.2 ng·h/mL. Further, in data set [1], the Cmax turned out to be 8.6 ng/mL and the Tmax was determined as 15 min.

For `CN1CC[C@]23c4c5ccc(O)c4O[C@H]2C(OC(=O)c2ccccc2O)=CC[C@@]3(O)[C@H]1C5` [6-(2-OH-Bz)-OM], in data set [1], the “%-AUC” value worked out at 134%, the “%-Cmax” value was 157%, the “%-Tmax” value was determined as 60% and the AUC stood at 50.6 ng·h/mL. In addition, in data set [1], the Cmax is reported as 31.6 ng/mL and the Tmax is 45 min.

As to `CC(C(=O)Oc1ccc2c3c1O[C@H]1C(=O)CC[C@@]4(O)[C@@H](C2)N(C)CC[C@]314)c1cccc(C(=O)c2ccccc2)c1` (stereo partly drawn) [3-Ketoprofen-OM], in data set [1], the “%-AUC” value is given as 159%, the “%-Cmax” value worked out at 150%, the “%-Tmax” value is 30% and the AUC turned out to be 49.7 ng·h/mL. In data set [1], the Cmax stood at 30.3 ng/mL and the Tmax came to 18 min.

In the case of `COc1ccc(C(=O)OC2=CCC3(O)C4Cc5ccc(OC(=O)c6ccc(OC)cc6)c6c5C3(CCN4C)C2O6)cc1` (stereo not drawn) [3,6-(4-MeO-Bz)2-OM], in data set [2], the “%-AUC” value stood at 30%, the “%-Cmax” value is reported as 9%, the “%-Tmax” value is 167% and the AUC was determined as 24.6 ng·h/mL. In data set [2], the Cmax is listed as 33.5 ng/mL and the Tmax worked out at 8.4 min. In data set [1], the “%-AUC” value came to 110%, the “%-Cmax” value turned out to be 121%, the “%-Tmax” value is 35% and the AUC came to 26.0 ng·h/mL. In addition, in data set [1], the Cmax was 10.6 ng/mL and the Tmax turned out to be 15 min.

Turning to `CN1CC[C@]23c4c5ccc(OC(=O)c6cc(-c7ccc(F)cc7F)ccc6O)c4O[C@H]2C(=O)CC[C@@]3(O)[C@H]1C5` [3-Diflunisal-OM], in data set [2], the “%-AUC” value was found to be 131%, the “%-Cmax” value worked out at 41%, the “%-Tmax” value came out at 200% and the AUC came out at 108.2 ng·h/mL. Further, in data set [2], the Cmax is given as 151.5 ng/mL and the Tmax was 10.2 min. Besides, in data set [1], the “%-AUC” value worked out at 85%, the “%-Cmax” value was determined as 52%, the “%-Tmax” value worked out at 340% and the AUC stood at 17.6 ng·h/mL. Also, in data set [1], the Cmax is recorded as 13.2 ng/mL and the Tmax is 51 min.

As to `CN1CC[C@]23c4c5ccc(OC(=O)/C=C/c6ccccc6)c4O[C@H]2C(=O)CC[C@@]3(O)[C@H]1C5` [3-Cinnamate-OM], in data set [1], the “%-AUC” value is recorded as 190%, the “%-Cmax” value is 236%, the “%-Tmax” value was found to be 136% and the AUC is 36.8 ng·h/mL. Moreover, in data set [1], the Cmax came to 19.0 ng/mL and the Tmax worked out at 90 min.

As for `CC(C(=O)Oc1ccc2c3c1O[C@H]1C(=O)CC[C@@]4(O)[C@@H](C2)N(C)CC[C@]314)c1cccc(Oc2ccccc2)c1` (stereo partly drawn) [3-Fenoprofen-OM], in data set [1], the “%-AUC” value stood at 59%, the “%-Cmax” value was determined as 52%, the “%-Tmax” value is given as 100% and the AUC amounted to 14.8 ng·h/mL. In data set [1], the Cmax turned out to be 9.6 ng/mL and the Tmax was found to be 36 min.

Regarding `CC(=O)Oc1ccccc1C(=O)Oc1ccc2c3c1OC1C(=O)CCC4(O)C(C2)N(C)CCC314` (stereo not drawn) [3-(2-AcO-Bz)-OM], in data set [1], the “%-AUC” value is listed as 72%, the “%-Cmax” value came out at 78%, the “%-Tmax” value stood at 25% and the AUC was 22.5 ng·h/mL. Also, in data set [1], the Cmax was found to be 15.8 ng/mL and the Tmax was 15 min.

Take `COc1ccc(C(=O)Oc2ccc3c4c2O[C@H]2C(=O)CC[C@@]5(O)[C@@H](C3)N(C)CC[C@]425)cc1` [3-(4-MeO-Bz)-OM]: in data set [2], the “%-AUC” value is 76%, the “%-Cmax” value amounted to 61%, the “%-Tmax” value is 100% and the AUC is 63.1 ng·h/mL. Besides, in data set [2], the Cmax turned out to be 244.9 ng/mL and the Tmax came to 4.8 min. Besides, in data set [1], the “%-AUC” value amounted to 100%, the “%-Cmax” value worked out at 99%, the “%-Tmax” value is listed as 100% and the AUC is 43.2 ng·h/mL. For the same compound, in data set [1], the Cmax stood at 23.6 ng/mL and the Tmax amounted to 63 min.

As for `CN1CC[C@]23c4c5ccc(O)c4O[C@H]2C(OC(=O)/C=C/c2ccccc2)=CC[C@@]3(O)[C@H]1C5` [6-Cinnamate-OM], in data set [1], the “%-AUC” value amounted to 77%, the “%-Cmax” value is 59%, the “%-Tmax” value is reported as 225% and the AUC was determined as 28.0 ng·h/mL. In addition, in data set [1], the Cmax is on record as 11.4 ng/mL and the Tmax worked out at 93 min.

Consider `CN1CC[C@]23c4c5ccc(O)c4O[C@H]2C(OC(=O)c2cc(-c4ccc(F)cc4F)ccc2O)=CC[C@@]3(O)[C@H]1C5` [6-Diflunisal-OM], for which, in data set [2], the “%-AUC” value stood at 25%, the “%-Cmax” value worked out at 11%, the “%-Tmax” value turned out to be 100% and the AUC amounted to 20.7 ng·h/mL. Further, in data set [2], the Cmax is on record as 39.1 ng/mL and the Tmax came out at 4.8 min. In data set [1], the AUC was 67.2 ng·h/mL, the Cmax turned out to be 50.6 ng/mL and the Tmax is 15 min.

For `CN1CC[C@]23c4c5ccc(O)c4O[C@H]2C(OC(=O)c2ccccc2)=CC[C@@]3(O)[C@H]1C5` [Conjugate 6-Bz-OM], in data set [2], the “%-AUC” value is given as 42%, the “%-Cmax” value is listed as 36%, the “%-Tmax” value is 100% and the AUC stood at 35.1 ng·h/mL. In addition, in data set [2], the Cmax was found to be 145.2 ng/mL and the Tmax was 4.8 min. In data set [1], the “%-AUC” value turned out to be 78%, the “%-Cmax” value is reported as 67%, the “%-Tmax” value worked out at 129% and the AUC was found to be 15.0 ng·h/mL. Further, in data set [1], the Cmax is given as 6.4 ng/mL and the Tmax is 108 min.
